# Test results published in PubChem BioAssay AID489024 (Sanford-Burnham Center for Chemical Genomics, 2010).
# The source made the active and inactive calls.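 Rule for the calls: active = compounds whose mean EC50, the dose giving half the maximal reporter activation, is at or below a set limit; inactive = the rest.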
# Target: CHO-CHOP luciferase reporter, UPR activation, luminescence
# Assay: CHOP reporter induction, apoptotic UPR branch – CHO-CHOP cells, luciferase luminescence, confirmation (AID 489024);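 note: compounds added alone to reporter cells with no tunicamycin stress co-treatment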
row,Compound,EC50
1,CC1=C(CC/C(C)=N/NC(N)=S)C(C)(C)CCC1,19.8 µM
2,O=C(Oc1c(CN2CCOCC2)cc(Cl)c2cccnc12)c1ccccc1F,18.2 µM
3,COc1cc(/C=C(/C(=O)c2cccs2)c2nc3ccccc3[nH]2)cc(OC)c1O,9.71 µM
4,CCn1cc(C(=O)NC(=S)Nc2sc3c(c2C(=O)OC)CCCCCC3)cn1,inactive
5,CCOC(=O)c1c(C)oc2c1c(C(c1cccnc1)N1CCCCC1)c(O)c1ccccc12 (stereo not given),15.2 µM
6,CC1=CC(C)(C)Nc2ccc(OC(=O)CN3C(=O)C4CCCCC4C3=O)cc21 (stereo not given),8.07 µM
7,COc1cc(SC#N)ccc1N=Cc1c(C)[nH]n(-c2ccc(Cl)cc2)c1=O,11.9 µM
8,COc1ccc(CCN2CCC(Nc3nc4ccccc4n3Cc3ccc(F)cc3)CC2)cc1,9.69 µM
9,CSc1nnc(NC(=O)c2nc(S(=O)(=O)Cc3ccc(C)cc3)ncc2Cl)s1,13.6 µM
10,COc1ccc(-c2cc3ccccc3oc2=O)cc1NC(=S)NC(=O)c1ccc2c(c1)OCCO2,14.9 µM
11,Cc1nn(Cc2c(Cl)cccc2Cl)c(C)c1NC(=O)c1sc2ccccc2c1Cl,inactive
12,O=C1NN(c2cccc(Br)c2)C(=O)/C1=C/c1cccs1,inactive
13,COc1ccc2[nH]cc(C(=O)CCl)c2c1,> 80 µM (inactive)
14,O=C(N/N=C/c1ccccn1)c1cc(-c2ccccc2)nc2ccccc12,5.91 µM
15,N#Cc1cc([N+](=O)[O-])c(-n2nnc3ccccc32)c([N+](=O)[O-])c1,18.5 µM
16,O=[N+]([O-])c1ccc(N/N=C/c2cccc(O)c2O)c(S(=O)(=O)N2CCOCC2)c1,6.53 µM
17,CCOC(=O)c1c(NC(C)=O)sc2c1CCC(C=O)=C2Sc1ccccc1,7.12 µM
18,CCOC(=O)/C(=C\c1cccc(O)c1)c1nc2sc(C)c(C)c2c(=O)[nH]1,13 µM
19,CC(C)N=c1scc(-c2cccs2)n1/N=C/c1ccc(O)c(O)c1O,11.6 µM
20,COc1ccc(OC)c(Nc2nc(-c3ccc(O)c(O)c3)cs2)c1,1.55 µM
21,COc1ccc(C(c2c(C)[nH]n(C(N)=S)c2=O)C(C#N)C#N)cc1 (stereo not given),inactive
22,COc1cc2nc(NC(=O)c3ccc(Cl)cc3)sc(=O)c2cc1OC,inactive
23,CSc1nnc(NC(=O)c2nc(S(=O)(=O)Cc3ccccc3F)ncc2Cl)s1,> 80 µM (inactive)
24,O=C(CCC(=O)Nc1ccc(Cl)cc1Cl)N/N=C/c1ccc([N+](=O)[O-])o1,12.9 µM
25,O=C(c1cccs1)N(C(=O)c1cccs1)c1ccc(Br)cn1,13.9 µM

row,Compound,EC50
1,O=C(CN1CCN(c2ccccc2F)CC1)c1ccc(O)c(O)c1,inactive
2,CCOc1ccc2nc(SC3CC(=O)N(c4ccc(C)cc4)C3=O)sc2c1 (stereo not given),> 80 µM (inactive)
3,CN(C)CC(C(=O)c1ccccc1)c1ccccc1 (stereo not given),6.77 µM
4,Oc1ccc(/C=N/N2CCCCC2)cc1O,inactive
5,O=C(N/N=C/c1cccc2cccnc12)c1ccccc1O,18.1 µM
6,N#Cc1ccc(N/N=C/c2cn(-c3ccccc3)nc2-c2ccccc2)c([N+](=O)[O-])c1,> 80 µM (inactive)
7,CCc1nn(-c2cc(Oc3cccc4ccccc34)nc(-c3ccccc3)n2)c(N)c1C#N,inactive
8,CCOC(=O)c1cc(-c2ccc(/C=C3/C(=O)N(c4ccc(C(=O)O)cc4)N=C3C)o2)ccc1Cl,10.8 µM
9,CC1CCCCC1N1CN=C(Nc2nc3ccccc3s2)NC1 (stereo not given),inactive
10,O=C(N/N=C/c1ccccn1)c1cc([N+](=O)[O-])cc([N+](=O)[O-])c1,inactive
11,Oc1ccc(/C=N/Nc2ccc(C(F)(F)F)cn2)cc1O,5.89 µM
12,C[C@@H]1C[C@@H]2O[C@H]2/C=C\C=C\C(=O)Cc2c(Cl)c(O)cc(O)c2C(=O)O1,5.32 µM
13,CCOC(=O)CSc1cccc2cccnc12,11.4 µM
14,N=c1c(-c2nc3ccccc3[nH]2)cc(C(=O)c2ccco2)nn1-c1ccccc1,15.2 µM
15,CCOC(=O)c1c2ccc(OCC(=O)N/N=C/c3ccc(C)cc3)cc2n2ccccc12,> 80 µM (inactive)
16,Cc1ccc(NN2C(=O)C=C(c3ccccc3)C2=O)cc1,14.5 µM
17,COc1ccc(O)c(/C=N/Nc2nc(Nc3ccccc3)nc(-n3nc(C)cc3C)n2)c1,5.05 µM
18,COc1ccc2c(c1OC)C(=O)OC2Nc1nc(-c2ccccc2)cs1 (stereo not given),> 80 µM (inactive)
19,CCOc1cc(/C=C2\CN(CC)C/C(=C\c3ccc(O)c(OCC)c3)C2=O)ccc1O,6.25 µM
20,COc1cc(NS(=O)(=O)c2ccc3ccccc3c2)c2ncccc2c1,7.5 µM
21,Cc1ccc(Cc2cnc(NC(=O)/C(C#N)=C/c3ccc(-c4ccc([N+](=O)[O-])cc4)o3)s2)cc1,inactive
22,COc1cc([C@H]2c3[nH]c4ccccc4c3C[C@H]3C(=O)N4[C@@H](c5cc(OC)c(OC)c(OC)c5)c5[nH]c6ccccc6c5C[C@H]4C(=O)N23)cc(OC)c1OC,11.3 µM
23,O=C1NC(=O)C(=Cc2ccc(-c3ccc(Cl)cc3)o2)C(=O)N1,18.2 µM
24,COc1ccc(/C=C/C(=O)Oc2ccc(C)cc2)cc1,inactive
25,Cc1cc(C(=O)Cn2ncc(Cl)c(Cl)c2=O)c(C)n1CC(F)(F)F,4.15 µM

row,Compound,EC50
1,FC(F)(F)c1nnc(-c2ccccc2)nc1Sc1ccccc1,8.09 µM
2,Cc1nc(SCC(=O)Nc2ccc(F)cc2)c(C#N)c(C)c1CC(=O)c1ccc(Br)cc1,> 80 µM (inactive)
3,Cc1cccc(C)c1NC(=O)C(Cl)C(=O)c1ccccc1 (stereo not given),19.3 µM
4,Cc1cnc(NC(=O)c2cc(S(=O)(=O)N(C)C)ccc2N2CCCC2)s1,6.42 µM
5,CCc1cc2c(=O)c(-c3cnn(-c4ccccc4)c3)c(C)oc2cc1OCC(=O)Nc1cccc(C)c1,15.1 µM
6,Cc1ccc(C(=O)Cn2c(C(=O)/C=C/c3ccccc3)nc3ccccc32)cc1,13.7 µM
7,CC(C)(C)N1CSC(=S)N(Cc2ccccc2)C1,10.2 µM
8,C=CCNC(=S)N/N=C(\C)c1ccccn1,2.5 µM
9,COc1ccccc1-c1cc(C(F)(F)F)nc(S(C)(=O)=O)n1,9.21 µM
10,CC(=O)c1ccc(NC(=O)COC(=O)c2ccccc2N=Nc2ccc(N(C)C)cc2)cc1,> 80 µM (inactive)
11,C=C(C(=O)c1ccccc1)C(C(=C)C(=O)c1ccccc1)c1ccc(OC)cc1,15.3 µM
12,CCOC(=O)/C(=C\c1ccc(Cl)cc1)c1nc2sc(C)c(C)c2c(=O)[nH]1,> 80 µM (inactive)
13,O=c1c2c3c(sc2ncn1/N=C/c1ccc([N+](=O)[O-])o1)CCCC3,7.01 µM
14,CSc1nnc(NC(=O)c2nc(S(=O)(=O)Cc3ccccc3)ncc2Cl)s1,> 80 µM (inactive)
15,COCc1cc(C)nc(OCC(=O)N/N=C/c2ccc(-c3cc([N+](=O)[O-])ccc3Cl)o2)c1C#N,14.3 µM
16,O=C(/C=C\c1ccccc1OC(=O)c1ccccc1F)c1cc2ccccc2o1,14 µM
17,O=C(/C=C/Sc1ccccc1)c1ccccc1,6.98 µM
18,Cc1ccc(CS(=O)(=O)c2ncc(Cl)c(C(=O)Nc3nnc(C(C)C)s3)n2)cc1,> 80 µM (inactive)
19,COc1cc(/C=C(/C#N)c2nc3ccccc3[nH]2)ccc1OCC(=O)Nc1ccccc1C,3.65 µM
20,O=C(N/N=C/c1ccccn1)c1cc(-c2ccc(Br)cc2)nc2ccccc12,2.4 µM
21,Cc1cc(NC(=O)CCS(=O)(=O)c2nc(-c3ccccc3)cc(C(F)(F)F)n2)no1,7.4 µM
22,COc1ccc(/C=N/Nc2cc(C)nc(-n3nc(C)cc3C)n2)cc1,10.4 µM
23,CN(C)C(=S)N=Nc1[nH]c2ccccc2c1O,6.88 µM
24,COc1ccc(C(=O)Sc2ccc(Cl)cc2)cc1OC,9.38 µM
25,O=CC1=C(c2ccccc2)Oc2ccccc2O1,12.2 µM
